Measurements as given in US9840510B1, “Pyrazolo[1,5-a]pyrimidinyl carboxamide compounds and their use in the treatment of medical disorders” (Lysosomal Therapeutics Inc., priority 2016, dated 2017).
≈ marks a conversion by molar mass, not a printed value.

Test: Compound solubility in water
Assay type: physicochemical

solubility [µg/mL] | Compound Solubility in Water [µg/mL] | SMILES
0.3 (≈ 0.784 µM) | – | COCc1cc(-c2ccc(F)cc2)nc2c(C(=O)NC(C)(C)C3CC3)cnn12 [III-47]
0.1 (≈ 0.254 µM) | – | Cc1cc(-c2ccc(F)cn2)nc2c(C(=O)NC(C3CC3)C(F)(F)F)cnn12 (centres unmarked) [III-204]
18 (≈ 57.6 µM) | – | Cc1cc(C)n2ncc(C(=O)NC(C3CC3)C(F)(F)F)c2n1 (centres unmarked) [III-9]
1.9 (≈ 5.03 µM) | – | Cc1cc(-c2cccnc2)nc2c(C(=O)NC(C(C)C)C(F)(F)F)cnn12 (centres unmarked) [III-41]
0.2 (≈ 0.521 µM) | – | Cc1cc(-c2cccc(Cl)n2)nc2c(C(=O)NC(C)C(F)(F)F)cnn12 (centres unmarked) [III-234]
1.1 (≈ 3.13 µM) | – | Cc1cc(-c2sccc2C#N)nc2c(C(=O)N[C@@H](C)C3CC3)cnn12 [III-301]
0.01 (≈ 0.0252 µM) | – | COc1ccc(F)cc1-c1cc(C)n2ncc(C(=O)N[C@H](C)C(F)(F)F)c2n1 [III-195]
– | 0.3 | Cc1cc(-c2ccc3ocnc3c2)nc2c(C(=O)NC(C3CC3)C(F)(F)F)cnn12 (centres unmarked) [III-108]
0.9 (≈ 2.44 µM) | – | COc1cc(F)ccc1-c1cc(C)n2ncc(C(=O)N[C@@H](C)C3CC3)c2n1 [III-146]
2.1 (≈ 5.36 µM) | – | Cc1cc(-c2cccnc2)nc2c(C(=O)N[C@H](C)c3ccc(Cl)cc3)cnn12 [III-37]
2.1 (≈ 5.12 µM) | – | Cc1cc(-c2ncccc2Cl)nc2c(C(=O)NC(C3CC3)C(F)(F)F)cnn12 (centres unmarked) [III-206]
0.3 (≈ 0.7 µM) | – | Cc1cc(-c2cccc3c2ncn3C)nc2c(C(=O)NC(C3CC3)C(F)(F)F)cnn12 (centres unmarked) [III-310]
1.1 (≈ 2.78 µM) | – | COc1c(F)cccc1-c1cc(C)n2ncc(C(=O)NC(C)C(F)(F)F)c2n1 (centres unmarked) [III-140]
3.8 (≈ 9.71 µM) | – | Cc1cc(-c2ccc(F)c(C#N)c2)nc2c(C(=O)NC(C)C(F)(F)F)cnn12 (centres unmarked) [III-159]
6.3 (≈ 18.8 µM) | – | Cc1cc(-c2ccncc2)nc2c(C(=O)NC(C)(C)C3CC3)cnn12 [III-20]
2.5 (≈ 6.79 µM) | – | COc1c(F)cccc1-c1cc(C)n2ncc(C(=O)N[C@@H](C)C3CC3)c2n1 [III-138]
0.5 (≈ 1.46 µM) | – | Cc1cc(N2CCCCC2)n2ncc(C(=O)NC(C)(C)C3CC3)c2n1 [III-22]
0.7 (≈ 1.84 µM) | – | Cc1cc(-c2ccns2)nc2c(C(=O)NC(C3CC3)C(F)(F)F)cnn12 (centres unmarked) [III-411]
2.5 (≈ 6.51 µM) | – | Cc1cc(-c2cncc(Cl)c2)nc2c(C(=O)N[C@@H](C)C(F)(F)F)cnn12 [III-202]
4.4 (≈ 12.1 µM) | – | Cc1cc(N2CCC(F)(F)CC2)nc2c(C(=O)NC(C)C3CC3)cnn12 (centres unmarked) [III-60]
8.9 (≈ 25.8 µM) | – | Cc1cc(C)n2ncc(C(=O)N[C@H]3CC[C@H](OC(C)(C)C)CC3)c2n1 [III-190]
0.5 (≈ 1.37 µM) | – | Cc1cc(-c2ccoc2)nc2c(C(=O)NC(C3CC3)C(F)(F)F)cnn12 (centres unmarked) [III-187]

solubility [µg/mL] | Compound Solubility in Water [µg/mL] | SMILES
1.2 (≈ 3.15 µM) | – | Cc1cc(-c2nccs2)nc2c(C(=O)NC(C3CC3)C(F)(F)F)cnn12 (centres unmarked) [III-209]
1.2 (≈ 2.88 µM) | – | Cc1cc(-c2cncc(C(F)(F)F)c2)nc2c(C(=O)NC(C)C(F)(F)F)cnn12 (centres unmarked) [III-285]
5.5 (≈ 15.1 µM) | – | Cc1cc(N2CCCC(F)(F)C2)nc2c(C(=O)NC(C)C3CC3)cnn12 (centres unmarked) [III-61]
0.5 (≈ 1.48 µM) | – | Cc1cc(-c2ccc(F)cc2)n2ncc(C(=O)N[C@@H](C)C3CC3)c2n1 [III-8]
0.6 (≈ 1.58 µM) | – | Cc1nc(-c2cc(C)n3ncc(C(=O)NC(C4CC4)C(F)(F)F)c3n2)co1 (centres unmarked) [III-249]
18.8 (≈ 55.1 µM) | – | Cc1cc(-c2cc(C)n3ncc(C(=O)N[C@@H](C)C4CC4)c3n2)sn1 [III-346]
0.02 (≈ 0.0481 µM) | – | Cc1cc(-c2cccc3ncoc23)nc2c(C(=O)NC(C3CC3)C(F)(F)F)cnn12 (centres unmarked) [III-104]
21 (≈ 49.5 µM) | – | Cc1cc(N2CCN(C(C)C)C2=O)nc2c(C(=O)N[C@@H](C3CC3)C(F)(F)F)cnn12 [III-326]
0.1 (≈ 0.268 µM) | – | Cc1cc(-c2ccc(F)cc2)nc2c(C(=O)N[C@@H](C)C3CC3)c(Cl)nn12 [III-32]
3.1 (≈ 8.17 µM) | – | Cc1ncc(-c2cc(C)n3ncc(C(=O)NC(C4CC4)C(F)(F)F)c3n2)o1 (centres unmarked) [III-246]
0.2 (≈ 0.505 µM) | – | COc1ccc(F)c(-c2cc(C)n3ncc(C(=O)N[C@H](C)C(F)(F)F)c3n2)c1 [III-97]
1.1 (≈ 2.56 µM) | – | COc1c(C#N)cccc1-c1cc(C)n2ncc(C(=O)NC(C3CC3)C(F)(F)F)c2n1 (centres unmarked) [III-141]
1.1 (≈ 2.7 µM) | – | Cc1cnc(F)c(-c2cc(C)n3ncc(C(=O)N[C@H](C4CC4)C(F)(F)F)c3n2)c1 [III-374]
2 (≈ 5.29 µM) | – | COc1cccc(-c2cc(C)n3ncc(C(=O)N[C@H](C)C(F)(F)F)c3n2)c1 [III-90]
0.4 (≈ 1.01 µM) | – | COc1ccc(F)cc1-c1cc(C)n2ncc(C(=O)NC(C)C(F)(F)F)c2n1 (centres unmarked) [III-194]
– | 1.0 | Cc1cc(-c2cccnc2F)nc2c(C(=O)NC(C3CC3)C(F)(F)F)cnn12 (centres unmarked) [III-113]
0.2 (≈ 0.565 µM) | – | C#CC(C)(C)NC(=O)c1cnn2c(C)cc(-c3cccc(Cl)n3)nc12 [III-63]
3.2 (≈ 8.85 µM) | – | Cc1cc(-c2cccc3ncoc23)nc2c(C(=O)N[C@@H](C)C3CC3)cnn12 [III-217]
1.6 (≈ 4.73 µM) | – | Cc1cc(-c2ccc(F)cc2)nc2c(C(=O)N[C@@H](C)C3CC3)cnn12 [III-7]
0.4 (≈ 0.934 µM) | – | Cc1cc(-c2ccc3ncn(C)c3c2)nc2c(C(=O)NC(C3CC3)C(F)(F)F)cnn12 (centres unmarked) [III-304]
2.1 (≈ 5.12 µM) | – | Cc1cc(-c2cnccc2Cl)nc2c(C(=O)NC(C3CC3)C(F)(F)F)cnn12 (centres unmarked) [III-122]
0.8 (≈ 2.09 µM) | – | COCc1cc(-c2cccc(F)c2)nc2c(C(=O)NC(C)(C)C3CC3)cnn12 [III-74]

solubility [µg/mL] | Compound Solubility in Water [µg/mL] | SMILES
5.1 (≈ 12.6 µM) | – | Cc1cc(-c2sccc2C#N)nc2c(C(=O)NC(C3CC3)C(F)(F)F)cnn12 (centres unmarked) [III-189]
1.7 (≈ 4.49 µM) | – | COc1cccc(-c2cc(C)n3ncc(C(=O)N[C@@H](C)C(F)(F)F)c3n2)c1 [III-91]
1.6 (≈ 4.11 µM) | – | Cc1cc(-c2ccc3ocnc3c2)nc2c(C(=O)NC(C)C(F)(F)F)cnn12 (centres unmarked) [III-169]
0.08 (≈ 0.195 µM) | – | Cc1cc(-c2cncc(Cl)c2)nc2c(C(=O)NC(C3CC3)C(F)(F)F)cnn12 (centres unmarked) [III-119]
12.7 (≈ 33.5 µM) | – | COc1ccncc1-c1cc(C)n2ncc(C(=O)NC(C)C(F)(F)F)c2n1 (centres unmarked) [III-269]
3.3 (≈ 8.06 µM) | – | Cc1cc(N2CCC(C)(C)C2=O)nc2c(C(=O)NC(C3CC3)C(F)(F)F)cnn12 (centres unmarked) [III-328]
25.7 (≈ 85.6 µM) | – | Cc1cc(C)n2ncc(C(=O)NC(CC(C)C)C3CC3)c2n1 (centres unmarked) [III-5]
1 (≈ 2.61 µM) | – | Cc1cc(-c2cncc(Cl)c2)nc2c(C(=O)NC(C)C(F)(F)F)cnn12 (centres unmarked) [III-200]
0.1 (≈ 0.226 µM) | – | Cc1cc(-c2cccnc2C(F)(F)F)nc2c(C(=O)N[C@H](C3CC3)C(F)(F)F)cnn12 [III-355]
0.9 (≈ 2.54 µM) | – | Cc1cc(-c2cccc(Cl)c2)nc2c(C(=O)N[C@@H](C)C3CC3)cnn12 [III-65]
0.5 (≈ 1.39 µM) | – | Cc1cc(-c2cccc(C#N)c2)nc2c(C(=O)NC(C)(C)C3CC3)cnn12 [III-71]
2.4 (≈ 5.75 µM) | – | Cc1cc(-c2cncc(C(F)(F)F)c2)nc2c(C(=O)N[C@@H](C)C(F)(F)F)cnn12 [III-287]
0.8 (≈ 1.95 µM) | – | Cc1cc(-c2ccc(Cl)nc2)nc2c(C(=O)N[C@H](C3CC3)C(F)(F)F)cnn12 [III-117]
2.9 (≈ 7.98 µM) | – | Cc1cc(-c2ccc(F)c(C#N)c2)nc2c(C(=O)N[C@@H](C)C3CC3)cnn12 [III-157]
6.4 (≈ 16.7 µM) | – | Cc1cc(-c2cccc(Cl)n2)nc2c(C(=O)N[C@H](C)C(F)(F)F)cnn12 [III-235]
1.5 (≈ 3.82 µM) | – | COc1cccc(-c2cc(C)n3ncc(C(=O)NC(C)(C)C(F)(F)F)c3n2)c1 [III-405]
17.4 (≈ 51.9 µM) | – | Cc1cc(-c2cccnc2)nc2c(C(=O)NC(C)(C)C3CC3)cnn12 [III-18]
4.8 (≈ 12.7 µM) | – | Cc1cc(N2CCC(F)(F)C2)nc2c(C(=O)NC(C)C(F)(F)F)cnn12 (centres unmarked) [III-180]
25.8 (≈ 62.6 µM) | – | Cc1cc(N2CCCN(C(C)C)C2=O)nc2c(C(=O)NC(C)C(F)(F)F)cnn12 (centres unmarked) [III-259]
15.1 (≈ 41.6 µM) | – | CCC(NC(=O)c1cnn2c(C)cc(-c3cccnc3)nc12)C(F)(F)F (centres unmarked) [III-42]
0.3 (≈ 0.724 µM) | – | Cc1cc(-c2ccc3nc[nH]c3c2)nc2c(C(=O)NC(C3CC3)C(F)(F)F)cnn12 (centres unmarked) [III-307]
0.9 (≈ 2.36 µM) | – | Cc1cc(-c2ccns2)nc2c(C(=O)N[C@H](C3CC3)C(F)(F)F)cnn12 [III-100]

solubility [µg/mL] | Compound Solubility in Water [µg/mL] | SMILES
0.7 (≈ 1.77 µM) | – | COc1cc(F)ccc1-c1cc(C)n2ncc(C(=O)NC(C)C(F)(F)F)c2n1 (centres unmarked) [III-150]
0.4 (≈ 1.05 µM) | – | Cc1cc(-c2ccc(F)o2)nc2c(C(=O)NC(C3CC3)C(F)(F)F)cnn12 (centres unmarked) [III-264]
0.7 (≈ 1.91 µM) | – | Cc1cc(-c2cccc(F)c2)nc2c(C(=O)N[C@H](C)C(F)(F)F)cnn12 [III-361]
0.2 (≈ 0.452 µM) | – | Cc1cc(-c2cccc(-c3ncon3)c2)nc2c(C(=O)NC(C3CC3)C(F)(F)F)cnn12 (centres unmarked) [III-176]
0.2 (≈ 0.591 µM) | – | Cc1cc(-c2cccc(F)c2)nc2c(C(=O)N[C@H](C)C3CC3)cnn12 [III-92]
0.5 (≈ 1.2 µM) | – | Cc1cc(-c2cccc3c2OCO3)nc2c(C(=O)NC(C3CC3)C(F)(F)F)cnn12 (centres unmarked) [III-183]
0.2 (≈ 0.51 µM) | – | CCOc1cccc(-c2cc(C)n3ncc(C(=O)NC(C)C(F)(F)F)c3n2)c1 (centres unmarked) [III-76]
0.3 (≈ 0.771 µM) | – | Cc1cc(-c2ccc3ocnc3c2)nc2c(C(=O)N[C@@H](C)C(F)(F)F)cnn12 [III-168]
0.2 (≈ 0.543 µM) | – | COc1cc(-c2cc(C)n3ncc(C(=O)N[C@@H](C)C4CC4)c3n2)ccc1F [III-145]
0.8 (≈ 2.19 µM) | – | Cc1cc(-c2ccon2)nc2c(C(=O)NC(C3CC3)C(F)(F)F)cnn12 (centres unmarked) [III-239]
0.6 (≈ 1.59 µM) | – | Cc1cc(-c2cccc3ncsc23)nc2c(C(=O)N[C@@H](C)C3CC3)cnn12 [III-222]
13.5 (≈ 30.4 µM) | – | Cc1cc(-c2cnccc2C(F)(F)F)nc2c(C(=O)N[C@@H](C3CC3)C(F)(F)F)cnn12 [III-354]
2.1 (≈ 5.12 µM) | – | Cc1cc(-c2cccnc2Cl)nc2c(C(=O)NC(C3CC3)C(F)(F)F)cnn12 (centres unmarked) [III-123]
1.6 (≈ 4.22 µM) | – | Cc1coc(-c2cc(C)n3ncc(C(=O)N[C@H](C4CC4)C(F)(F)F)c3n2)n1 [III-255]
0.3 (≈ 0.919 µM) | – | Cc1cc(C)n2ncc(C(=O)NC(C)(C)C3CC4(CCC4)C3)c2n1 [III-13]
0.7 (≈ 1.91 µM) | – | Cc1cc(-c2ccc(F)cc2)nc2c(C(=O)N[C@@H](C)C(F)(F)F)cnn12 [III-360]
14.8 (≈ 39.4 µM) | – | Cc1cc(-c2cccnc2)nc2c(C(=O)N[C@H](C3CC3)C(F)(F)F)cnn12 [III-88]
11.6 (≈ 26.5 µM) | – | Cc1cc(N2CCCN(C(C)C)C2=O)nc2c(C(=O)NC(C3CC3)C(F)(F)F)cnn12 (centres unmarked) [III-257]
17.4 (≈ 46.3 µM) | – | COc1c(C#N)cccc1-c1cc(C)n2ncc(C(=O)N[C@@H](C)C3CC3)c2n1 [III-143]
0.1 (≈ 0.218 µM) | – | Cc1cc(N2C[C@@H](c3ccccc3)OC2=O)nc2c(C(=O)NC(C3CC3)C(F)(F)F)cnn12 (some centres unmarked) [III-315]
